Measured values reported in patent US12357656B2 (AMORPHICAL LTD, priority 2019, dated 2025).

How the values were obtained:
[1] = Titration of DPBS and DMEM/F12 + 10% FBS with different carbonate sources (pH effect); assay type: physicochemical; conditions: for Amount in ml that was needed to reach pH 8: 73.5 mM carbonate suspension or solution
From the text: Two commercial media, Dulbecco's phosphate-buffered saline (DPBS) and Gibco Dulbecco's Modified Eagle Medium: Nutrient Mixture F-12 (DMEM/F12), with 10% Fetal Bovine Serum (FBS) were used to evaluate the pH effect of different sources of calcium carbonate. DPBS is Dulbecco's Phosphate Buffered Saline, generally serves as an isotonic saline solution or buffer for washing cells and tissues and intends to provide a buffer system for maintaining cell culture media in the physiological range of 7.2-7.6.
DMEM/F12 is a widely used basal medium for supporting the growth of many different mammalian cells. DMEM/F12 medium+10% FBS was used to maximally mimic the environment of the body fluids.
Three sources of calcium carbonate were used ACC, Sodium bicarbonate (SBC) and Crystalline Calcium Carbonate (CCC).
The final composition comprised 73.53 mM of CaCO3 in the water suspension.
The addition was done until a pH plateau was accomplished or the level of the solution reached the end of the capacity of the used container (˜130 ml).

[2] = oral administration of 300 mg/kg; Zajac 2009; cited from earlier work
[3] = human performance; Requena 2005; cited from earlier work
[4] = chronic ingestion, 300 to 500 mg/kg; Lopes-Silva; cited from earlier work
athletes = conditions: about 20-35 g/day; cited from earlier work
[5] = supplementation; Sounders 2016; cited from earlier work

Row | SMILES | Final pH ([1]; added to DMEM/F12 + 10% FBS) | Amount in ml that was needed to reach pH 8 ([1]; added to DMEM/F12 + 10% FBS) | Final pH ([1]; added to DPBS) | Amount in ml that was needed to reach pH 8 ([1]; added to DPBS) | capability to reach higher pH levels ([1]; SBC compared with CCC) | training intensity and swimming performance [2] | doses for which a significant effect was shown [3] | Wingate test peak or mean power [4] | reported adverse effects (athletes) | effect on exercise [5]
1 | O=C([O-])[O-].[Ca+2] [CCC, Crystalline Calcium Carbonate] | 7.90 | 80 ml | 8 | 65 ml | – | – | – | – | – | –
2 | O=C([O-])O.[Na+] [SBC, Sodium bicarbonate] | 8.3 | 77 ml | 8.30 | 76.4 ml | not significantly different | can increase training intensity and swimming performance | above 300 mg/kg | chronic ingestion of NaHCO3 did | stomach aches and discomfort, nausea, and vomiting | –
3 | NCCC(=O)O [β-alanine] | – | – | – | – | – | – | – | – | – | significant overall ergogenic effect
